Experimental data reported in ChEMBL document CHEMBL1127066, “Discovery and structure-activity relationship of a series of 1-carba-1-dethiacephems exhibiting activity against methicillin-resistant Staphylococcus aureus” (J Med Chem, 1993).

Test system: Escherichia coli
Assay: In vitro evaluation of antimicrobial activity against Escherichia coli EC14 strain
Assay type: functional

How did the MIC turn out when `Nc1nc(/C(=N\OCCF)C(=O)N[C@@H]2C(=O)N3C(C(=O)[O-])=C(Sc4nc(-c5ccccn5)cs4)CC[C@H]23)cs1.[Na+]` was run?
The MIC was 0.5 mg/L.

With `Cn1nnnc1SC1=C(C(=O)[O-])N2C(=O)[C@@H](NC(=O)/C(=N/OCCF)c3csc(N)n3)[C@H]2CC1.[Na+]` as the compound, how does the MIC read?
Its MIC is 0.06 mg/L.

For `Nc1nc(/C(=N\OCCF)C(=O)N[C@@H]2C(=O)N3C(C(=O)[O-])=C(Sc4snc5ccccc45)CC[C@H]23)cs1.[Na+]`, which MIC is on record?
Its MIC is 0.25 mg/L.

Test system: Enterobacter cloacae
Assay: In vitro evaluation of antimicrobial activity against Enterobacter cloacae EB5 strain
Assay type: functional

`Nc1nc(/C(=N\OCCF)C(=O)N[C@@H]2C(=O)N3C(C(=O)[O-])=C(Sc4nc(-c5ccccn5)cs4)CC[C@H]23)cs1.[Na+]` was tested. Which MIC did it give?
Its MIC is 2 mg/L.

With `Cn1nnnc1SC1=C(C(=O)[O-])N2C(=O)[C@@H](NC(=O)/C(=N/OCCF)c3csc(N)n3)[C@H]2CC1.[Na+]` as the compound, how does the MIC read?
Its MIC is 0.5 mg/L.

How did the MIC turn out when `Nc1nc(/C(=N\OCCF)C(=O)N[C@@H]2C(=O)N3C(C(=O)[O-])=C(Sc4snc5ccccc45)CC[C@H]23)cs1.[Na+]` was run?
Its MIC is 0.5 mg/L.

Test system: Haemophilus influenzae
Assay: In vitro antimicrobial activity against Haemophilus influenzae C.L. strain
Assay type: functional

With `Nc1nc(/C(=N\OCCF)C(=O)N[C@@H]2C(=O)N3C(C(=O)[O-])=C(Sc4nc(-c5ccccn5)cs4)CC[C@H]23)cs1.[Na+]` as the compound, how does the MIC read?
Its MIC is 0.03 mg/L.

`Cn1nnnc1SC1=C(C(=O)[O-])N2C(=O)[C@@H](NC(=O)/C(=N/OCCF)c3csc(N)n3)[C@H]2CC1.[Na+]` was tested. Which MIC did it give?
Its MIC is 0.015 mg/L.

With `Nc1nc(/C(=N\OCCF)C(=O)N[C@@H]2C(=O)N3C(C(=O)[O-])=C(Sc4snc5ccccc45)CC[C@H]23)cs1.[Na+]` as the compound, how does the MIC read?
Its MIC is 0.03 mg/L.

Test system: Klebsiella
Assay: In vitro antimicrobial activity against Klebsiella X26 strain
Assay type: functional

`Nc1nc(/C(=N\OCCF)C(=O)N[C@@H]2C(=O)N3C(C(=O)[O-])=C(Sc4nc(-c5ccccn5)cs4)CC[C@H]23)cs1.[Na+]` was tested. Which MIC did it give?
Its MIC is 0.03 mg/L.

How did the MIC turn out when `Cn1nnnc1SC1=C(C(=O)[O-])N2C(=O)[C@@H](NC(=O)/C(=N/OCCF)c3csc(N)n3)[C@H]2CC1.[Na+]` was run?
Its MIC is under 0.008 mg/L.

With `Nc1nc(/C(=N\OCCF)C(=O)N[C@@H]2C(=O)N3C(C(=O)[O-])=C(Sc4snc5ccccc45)CC[C@H]23)cs1.[Na+]` as the compound, how does the MIC read?
The MIC was 0.03 mg/L.

Test system: Pseudomonas aeruginosa
Assay: Antimicrobial activity against Pseudomonas PS18 strain
Assay type: functional

For `Nc1nc(/C(=N\OCCF)C(=O)N[C@@H]2C(=O)N3C(C(=O)[O-])=C(Sc4nc(-c5ccccn5)cs4)CC[C@H]23)cs1.[Na+]`, which MIC is on record?
The MIC was 64 mg/L.

For `Cn1nnnc1SC1=C(C(=O)[O-])N2C(=O)[C@@H](NC(=O)/C(=N/OCCF)c3csc(N)n3)[C@H]2CC1.[Na+]`, which MIC is on record?
Its MIC is over 128 mg/L.

`Nc1nc(/C(=N\OCCF)C(=O)N[C@@H]2C(=O)N3C(C(=O)[O-])=C(Sc4snc5ccccc45)CC[C@H]23)cs1.[Na+]` was tested. Which MIC did it give?
The MIC was 16 mg/L.

Test system: Pseudomonas aeruginosa
Assay: In vitro antimicrobial activity against Pseudomonas X239 strain
Assay type: functional

For `Nc1nc(/C(=N\OCCF)C(=O)N[C@@H]2C(=O)N3C(C(=O)[O-])=C(Sc4nc(-c5ccccn5)cs4)CC[C@H]23)cs1.[Na+]`, which MIC is on record?
The MIC was 32 mg/L.

How did the MIC turn out when `Cn1nnnc1SC1=C(C(=O)[O-])N2C(=O)[C@@H](NC(=O)/C(=N/OCCF)c3csc(N)n3)[C@H]2CC1.[Na+]` was run?
Its MIC is 16 mg/L.

`Nc1nc(/C(=N\OCCF)C(=O)N[C@@H]2C(=O)N3C(C(=O)[O-])=C(Sc4snc5ccccc45)CC[C@H]23)cs1.[Na+]` was tested. Which MIC did it give?
The MIC was 32 mg/L.

Test system: Staphylococcus epidermidis
Assay: In vitro antimicrobial activity against Staphylococcus epidermidis 222 strain
Assay type: functional

How did the MIC turn out when `Nc1nc(/C(=N\OCCF)C(=O)N[C@@H]2C(=O)N3C(C(=O)[O-])=C(Sc4nc(-c5ccccn5)cs4)CC[C@H]23)cs1.[Na+]` was run?
The MIC was 0.5 mg/L.

Which MIC does the source give for `Cn1nnnc1SC1=C(C(=O)[O-])N2C(=O)[C@@H](NC(=O)/C(=N/OCCF)c3csc(N)n3)[C@H]2CC1.[Na+]` here?
The MIC was 2 mg/L.

How did the MIC turn out when `Nc1nc(/C(=N\OCCF)C(=O)N[C@@H]2C(=O)N3C(C(=O)[O-])=C(Sc4snc5ccccc45)CC[C@H]23)cs1.[Na+]` was run?
The MIC was 0.5 mg/L.

Test system: Staphylococcus epidermidis
Assay: In vitro antimicrobial activity against Staphylococcus epidermidis 270 strain
Assay type: functional

With `Nc1nc(/C(=N\OCCF)C(=O)N[C@@H]2C(=O)N3C(C(=O)[O-])=C(Sc4nc(-c5ccccn5)cs4)CC[C@H]23)cs1.[Na+]` as the compound, how does the MIC read?
The MIC was 2 mg/L.

How did the MIC turn out when `Cn1nnnc1SC1=C(C(=O)[O-])N2C(=O)[C@@H](NC(=O)/C(=N/OCCF)c3csc(N)n3)[C@H]2CC1.[Na+]` was run?
The MIC was 4 mg/L.

How did the MIC turn out when `Nc1nc(/C(=N\OCCF)C(=O)N[C@@H]2C(=O)N3C(C(=O)[O-])=C(Sc4snc5ccccc45)CC[C@H]23)cs1.[Na+]` was run?
Its MIC is 2 mg/L.

Test system: Staphylococcus aureus
Assay: In vitro antimicrobial activity against Staphylococcus aureus S13E strain
Assay type: functional

`Nc1nc(/C(=N\OCCF)C(=O)N[C@@H]2C(=O)N3C(C(=O)[O-])=C(Sc4nc(-c5ccccn5)cs4)CC[C@H]23)cs1.[Na+]` was tested. Which MIC did it give?
Its MIC is 16 mg/L.

How did the MIC turn out when `Cn1nnnc1SC1=C(C(=O)[O-])N2C(=O)[C@@H](NC(=O)/C(=N/OCCF)c3csc(N)n3)[C@H]2CC1.[Na+]` was run?
The MIC was 128 mg/L.

With `Nc1nc(/C(=N\OCCF)C(=O)N[C@@H]2C(=O)N3C(C(=O)[O-])=C(Sc4snc5ccccc45)CC[C@H]23)cs1.[Na+]` as the compound, how does the MIC read?
The MIC was 32 mg/L.

Test system: Staphylococcus aureus
Assay: In vitro antimicrobial activity against Staphylococcus aureus X400 strain
Assay type: functional

With `Nc1nc(/C(=N\OCCF)C(=O)N[C@@H]2C(=O)N3C(C(=O)[O-])=C(Sc4nc(-c5ccccn5)cs4)CC[C@H]23)cs1.[Na+]` as the compound, how does the MIC read?
The MIC was 32 mg/L.

`Cn1nnnc1SC1=C(C(=O)[O-])N2C(=O)[C@@H](NC(=O)/C(=N/OCCF)c3csc(N)n3)[C@H]2CC1.[Na+]` was tested. Which MIC did it give?
The MIC was over 128 mg/L.

With `Nc1nc(/C(=N\OCCF)C(=O)N[C@@H]2C(=O)N3C(C(=O)[O-])=C(Sc4snc5ccccc45)CC[C@H]23)cs1.[Na+]` as the compound, how does the MIC read?
Its MIC is 64 mg/L.

Test system: Streptococcus pneumoniae
Assay: In vitro antimicrobial activity against Streptococcus pneumoniae PARK strain
Assay type: functional

Which MIC does the source give for `Nc1nc(/C(=N\OCCF)C(=O)N[C@@H]2C(=O)N3C(C(=O)[O-])=C(Sc4nc(-c5ccccn5)cs4)CC[C@H]23)cs1.[Na+]` here?
Its MIC is under 0.008 mg/L.

With `Cn1nnnc1SC1=C(C(=O)[O-])N2C(=O)[C@@H](NC(=O)/C(=N/OCCF)c3csc(N)n3)[C@H]2CC1.[Na+]` as the compound, how does the MIC read?
The MIC was 0.015 mg/L.

Which MIC does the source give for `Nc1nc(/C(=N\OCCF)C(=O)N[C@@H]2C(=O)N3C(C(=O)[O-])=C(Sc4snc5ccccc45)CC[C@H]23)cs1.[Na+]` here?
The MIC was under 0.008 mg/L.

Test system: Staphylococcus aureus
Assay: In vitro antimicrobial activity against Staphylococcus aureus X1.1 strain
Assay type: functional

`Nc1nc(/C(=N\OCCF)C(=O)N[C@@H]2C(=O)N3C(C(=O)[O-])=C(Sc4nc(-c5ccccn5)cs4)CC[C@H]23)cs1.[Na+]` was tested. Which MIC did it give?
The MIC was 0.25 mg/L.

For `Cn1nnnc1SC1=C(C(=O)[O-])N2C(=O)[C@@H](NC(=O)/C(=N/OCCF)c3csc(N)n3)[C@H]2CC1.[Na+]`, which MIC is on record?
Its MIC is 0.5 mg/L.

For `Nc1nc(/C(=N\OCCF)C(=O)N[C@@H]2C(=O)N3C(C(=O)[O-])=C(Sc4snc5ccccc45)CC[C@H]23)cs1.[Na+]`, which MIC is on record?
Its MIC is 0.125 mg/L.
